The assay concerns the target NPM1 (nucleophosmin 1) (Homo sapiens, UniProt P06748). Put plainly: surface plasmon resonance. Type of assay: binding.

NPM1 (nucleophosmin 1), sequence (P06748 whole entry): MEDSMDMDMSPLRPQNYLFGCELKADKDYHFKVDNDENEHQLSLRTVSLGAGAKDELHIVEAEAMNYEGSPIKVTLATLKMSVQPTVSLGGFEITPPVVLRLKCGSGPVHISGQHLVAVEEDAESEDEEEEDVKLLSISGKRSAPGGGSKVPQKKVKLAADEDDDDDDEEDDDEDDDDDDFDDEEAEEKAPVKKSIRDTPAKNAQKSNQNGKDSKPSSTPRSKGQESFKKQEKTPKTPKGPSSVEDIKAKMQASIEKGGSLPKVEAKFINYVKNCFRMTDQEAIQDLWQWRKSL

Take `C[C@H](CCC(=O)NCCS(=O)(=O)O)[C@H]1CC[C@H]2[C@@H]3[C@H](O)C[C@@H]4C[C@H](O)CC[C@]4(C)[C@H]3CC[C@]12C` [taurochenodeoxycholic acid]: the dissociation constant Kd turned out to be 20.9 µM.

The values are drawn from PMC12783763 (Nature Communications, 2025).
